≈ marks a conversion by molar mass, not a printed value. Read-outs that look alike come from different tables or passages of the source.
How the values were obtained:
[1] = Planar bilayer voltage clamp; details: 70 mV, KCl 450 mM, HEPES 10 mM, pH 7
Description: This compound was therefore converted into its bis(methiodide) to form C11LE•2MeI (8). It is clear from the trace shown that only spiking behavior was observed and a large opening eventually emerged. […] The formation of a large opening in the membrane comports with the expectation of increased permeability. Such an opening is also in accord with the observation (see above) of depolarization of bacterial membranes.
Figure 18 Planar bilayer voltage clamp trace for C11LE•2MeI (8) at 70 mV. Axes: Y = millivolts and X axis = 10 s per section. Conditions: soybean asolectin membrane, KCl (450 mm) buffer solution (HEPES, 10 mm, pH 7).
The planar bilayer experiments were conducted as described previously.

[2] = tested on: DH5α E. coli; assay: MIC against DH5α E. coli; type: cell-based; details: Escherichia coli, no additional antimicrobial; MICs in table limited to […]; read-out: Minimum inhibitory concentration against DH5α E. coli
[3] = tested on: K12 E. coli; assay: MIC against K12 E. coli; type: cell-based; details: Escherichia coli
[4] = tested on: DH5α E. coli; design: method as in PMID 15858645; details: free bases, previously reported data; cited from earlier work
[5] = tested on: Escherichia coli; details: administered with ½ MIC of C8LE; earlier work, no reference given; cited from earlier work
[6] = Turbidimetric solubility limit in MHII or PBS; type: physicochemical; details: DMSO ≤0.5%
[7] = tested on: Tet^R E. coli; assay: MIC against Tet^R E. coli; type: cell-based
[8] = tested on: S. aureus 1199B; assay: MIC against S. aureus 1199B; type: cell-based, Staphylococcus aureus; details: MHII media, 90% growth inhibition
[9] = tested on: S. aureus; assay: MIC against S. aureus under various pH and media conditions; type: cell-based, Staphylococcus aureus
[10] = Dynamic light scattering of C12LE aggregation; type: physicochemical; details: water, in the presence of the antimicrobial or C12LE alone
Method: It is known that dialkyldiazacrowns form stable aggregates in aqueous solution [57, 62]. It was hypothesized that complexation between antimicrobials and macrocycles would alter or prevent the ability of the complex to form aggregates. […] Indeed, the particle sizes observed when chlortetracycline is present was almost indistinguishable from particle formation by C12LE (4) alone.
Measurements were performed on a Brookhaven Instruments Corp. ZetaPALS instrument at 25 °C using a 660 nm laser and correlating scattering at 90°. Samples were prepared by initially dissolving the amphiphile in filtered DMSO obtained from ThermoFisher. Next, they were diluted into 1× PBS such that DMSO was fixed at 0.5% in 15 mL sterile conical tubes. 10× PBS was obtained commercially, then diluted 10-fold in MQ H2O. The mixture was vortexed and incubated at room temperature for 2 h, then transferred to a clean quartz cuvette and equilibrated in the instrument for 10 min at 25 °C. Ten measurements consisting of 2 min runs were made on each sample. The average effective diameter was calculated with standard error reported for at least three trials.

[11] = biological target: T1, NorA efflux pumps in S. aureus 1199B (Staphylococcus aureus, UniProt P0A0J7); assay: Efflux pump inhibition (EthBr accumulation); type: cell-based; design: Efflux pump inhibition (increase in EthBr fluorescence): dose or concentration left out as unconfirmed; details: […] µM compound
T1 construct: Increase in EthBr fluorescence observed by its accumulation in S. aureus 1199B cytosol; endogenous in cells; host or cells: Staphylococcus aureus 1199B (whole bacteria)
T1 sequence (P0A0J7 whole entry): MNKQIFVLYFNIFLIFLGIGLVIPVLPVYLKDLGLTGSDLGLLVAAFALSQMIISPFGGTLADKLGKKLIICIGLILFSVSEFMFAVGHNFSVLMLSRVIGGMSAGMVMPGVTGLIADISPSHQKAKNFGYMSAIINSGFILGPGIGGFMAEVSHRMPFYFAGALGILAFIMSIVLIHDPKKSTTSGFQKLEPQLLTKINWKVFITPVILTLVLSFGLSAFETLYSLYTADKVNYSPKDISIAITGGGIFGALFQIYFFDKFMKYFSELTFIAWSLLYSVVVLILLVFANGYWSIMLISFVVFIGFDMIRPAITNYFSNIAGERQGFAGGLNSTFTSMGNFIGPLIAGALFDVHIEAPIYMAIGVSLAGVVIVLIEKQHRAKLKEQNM
Description: An important reason for the choice of S. aureus 1199B for study is that its resistance to norfloxacin is known to result from the presence of the Nor A efflux pump. Efflux pumps require regulated ion balance to function so that exogeneous substances such as antibacterials can effectively be ejected. Ethidium bromide (EthBr) can penetrate bacteria and is detectable by its fluorescence. To the extent that ion homeostasis is disrupted, ion balance is deregulated, and efflux pump function is compromised or inhibited.
Experimental details have been reported in [44].

[12] = tested on: S. aureus; assay: Membrane depolarization by DiBAC4(3) fluorescence; type: cell-based, Staphylococcus aureus; details: compound at ½ MIC
Method: Disruption of ion homeostasis by 1–6 should be apparent in the associated membrane depolarization. […] The dye is readily absorbed by bacteria owing to the negative internal potential. Disruption of ion homeostasis will affect both proton and potassium cation regulation. The internalized, self-quenched dye will be released and increased fluorescence will be observed.
Two types of experiments were performed to assess membrane depolarization. […] If ion homeostasis is affected by the presence of any of these compounds, the fluorescent response should increase as the lariat ether concentration increased.
A second series of experiments was performed to determine the relationship of disrupted ion homeostasis, as reflected in membrane depolarization with cellular vitality (Figure 17). […] Alamar blue (see above) was used to determine cell viability. No depolarization was apparent in the S. aureus control in the absence of a lariat ether or lariat ether derivative. Depolarization was greatest for C10LE•MeI (3). […] We note that the MIC values for S. aureus observed for 2, 3, 5, and 6 were similar.
The membrane depolarization study was conducted as described in [48].

[13] = tested on: S. aureus 1199B; assay: Growth curves; type: cell-based, Staphylococcus aureus; details: ½ MIC, OD600 over 24 h
Method: In the studies above, 1–6 were administered at ½ MIC concentrations. At these concentrations, no toxic effect of the compound on cells was anticipated. In order to confirm the effect of compound concentration on S. aureus viability, growth curves were conducted for each compound. In all cases, S. aureus alone was used as control. For the three C10LE compounds (1–3), 32 µM and 64 µM concentrations of norfloxacin were added to the norfloxacin-resistant S. aureus strain as an additional control. The concentration ranges for each of compounds 1–6 varied with their potencies.
The determination of growth curves was performed against S. aureus 1199B, which is norfloxacin resistant at 32 µM. Norfloxacin was used at 64 µM as a control. The compounds tested were 1–6, C10LE and C12LE and their hydrochlorides and methiodides. S. aureus 1199B was cultured overnight from a single CFU and reduced to OD600 = 0.55 before use. Samples were prepared in LB media to which was added either the norfloxacin control or the combination of norfloxacin and one of the compounds C10LE (1), C10LE•2HCl (2), C10LE•2MeI (3), C12LE (4), C12LE•2HCl (5), or C12LE•2MeI (6). Dimethylsulfoxide (DMSO) was used to solubilize the lariat ether derivative, when necessary, but its concentration was never allowed to exceed 0.5% (v/v) in all experiments. […] The absorbance of each sample (600 nm) was recorded every quarter hour for 24 h.

Row | Structure (SMILES) | Channel formation in planar bilayer [1] | MIC [2] [µM] | MIC ([3]; read-out: MIC K12 E. coli, MHII media, 90% growth inhibition) [µM] | Minimum inhibitory concentration against DH5α E. coli [4] [µM] | Fold increase in potency of rifampicin against E. coli [5] [fold] | solubility at 2 h ([6]; Mueller Hinton II, pH 7.3, 2 h at 37 °C, read-out: Solubility limit in MHII) [µM] | solubility at 2 h ([6]; phosphate-buffered saline, 2 h at 37 °C, read-out: Solubility limit in PBS) [µM] | MIC ([3]; MHII media, 90% growth inhibition, read-out: MIC K12 E. coli) [µM] | MIC ([7]; Escherichia coli, read-out: MIC Tet^R E. coli) [µM] | MIC Tet^R E. coli ([7]; MHII media, 90% growth inhibition) | MIC S. aureus 1199B [8] [µM] | MIC ([9]; MHII, pH 6.4, read-out: MIC S. aureus, MHII pH 6.4) [µM] | MIC ([9]; MHII, pH 7.4, read-out: MIC S. aureus, MHII pH 7.4) [µM] | Change in MIC as the pH was increased from 6.4 to 8.4 ([9]; S. aureus, Mueller Hinton medium) | MIC ([9]; Staphylococcus aureus, pH 8.4, MHII, pH 8.4, read-out: MIC S. aureus, MHII pH 8.4) [µM] | Slope of C12LE aggregation (DLS particle size) [10] | Efflux pump inhibition (increase in EthBr fluorescence) [11] | Membrane depolarization (DiBAC4(3) fluorescence) [12] | Effect on bacterial growth (growth curves) [13] | melting point [°C]
1 | CCCCCCCCCCC[N+]1(C)CCOCCOCC[N+](C)(CCCCCCCCCCC)CCOCCOCC1 (stereo not drawn) [C11LE•2MeI (8)] | does not form stable channels |  |  |  |  |  |  |  |  |  |  |  |  |  |  |  |  |  |  | 
2 | CCCCCCCCN1CCOCCOCCN(CCCCCCCC)CCOCCOCC1 [C8LE (7)] |  | 206 (≈ 100 µg/mL) | 100 (≈ 48.7 µg/mL) | >128 | 20 |  |  |  |  |  |  |  |  |  |  |  |  |  |  | 
3 | CCCCCCCCCCCCN1CCOCCOCCN(CCCCCCCCCCCC)CCOCCOCC1 [C12LE (4), N,N′-Di-n-dodecyl-4-13-diaza-18-crown-6] |  | > 128 |  |  |  | 16 (≈ 9.58 µg/mL) | 16 (≈ 9.58 µg/mL) | > 128 | > 64 | inactive | 32 (≈ 19.2 µg/mL) | >16 | >32 | changes in MIC were observed | > 64 | 2.95 | most potent efflux pump inhibition | failed to show any significant evidence of membrane depolarization | growth effects were observed at ½ MIC and lower | 141 to 144

— publication PMC10603992, “Antimicrobial and Adjuvant Potencies of Di-n-alkyl Substituted Diazalariat Ethers” (Antibiotics, 2023)
